{"source": "paper PMC6646438", "about": "(Natural Products and Bioprospecting, 2019)", "key": {"melatonin MT1 receptor": {"target": "T1, melatonin MT1 receptor (Homo sapiens, UniProt P48039)", "T1 construct": "gene MTNR1A", "T1 sequence (P48039 whole entry)": "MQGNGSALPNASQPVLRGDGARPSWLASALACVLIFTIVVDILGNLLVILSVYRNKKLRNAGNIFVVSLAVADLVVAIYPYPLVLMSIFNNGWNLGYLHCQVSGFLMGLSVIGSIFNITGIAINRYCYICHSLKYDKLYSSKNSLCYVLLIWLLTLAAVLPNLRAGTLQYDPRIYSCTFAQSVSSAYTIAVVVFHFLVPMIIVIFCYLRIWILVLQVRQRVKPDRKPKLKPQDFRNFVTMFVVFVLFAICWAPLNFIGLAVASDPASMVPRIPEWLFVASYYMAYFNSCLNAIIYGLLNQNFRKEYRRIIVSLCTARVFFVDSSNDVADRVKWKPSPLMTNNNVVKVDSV", "test": "Fluo-8 calcium flux agonist assay in HEK293 cells stably expressing human MT1, single concentration […]", "type": "cell-based", "conditions": "read-out: % agonistic rate at 0.5 mM"}, "melatonin MT2 receptor": {"target": "T2, melatonin MT2 receptor (Homo sapiens, UniProt P49286)", "T2 construct": "gene MTNR1B", "T2 sequence (P49286 1-362)": "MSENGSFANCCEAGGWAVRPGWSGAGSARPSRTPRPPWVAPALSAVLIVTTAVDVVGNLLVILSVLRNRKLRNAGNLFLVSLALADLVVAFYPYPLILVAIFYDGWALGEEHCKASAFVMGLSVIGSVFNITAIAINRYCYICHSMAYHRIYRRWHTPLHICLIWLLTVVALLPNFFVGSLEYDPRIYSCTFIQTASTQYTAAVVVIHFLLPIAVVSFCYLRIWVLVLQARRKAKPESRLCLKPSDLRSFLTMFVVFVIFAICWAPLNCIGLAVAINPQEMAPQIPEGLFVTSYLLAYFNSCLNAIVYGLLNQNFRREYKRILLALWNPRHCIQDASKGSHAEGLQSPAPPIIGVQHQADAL", "test": "Fluo-8 calcium flux agonist assay in HEK293 cells stably expressing human MT2, dose-response", "type": "cell-based"}}}
{"molecule": "Oc1ccc(Cc2ccc(O)c(Cc3cc(Cc4ccc(O)cc4)c(O)c(Cc4ccc(O)cc4)c3)c2)cc1", "note": "[compound 1, gastropolybenzylol G]", "values": [{"measurement": "activation at 500 µM", "setting": "melatonin MT1 receptor", "result": "55.9 ± 4.84", "unit": "%"}, {"measurement": "EC50", "setting": "melatonin MT2 receptor", "result": 76.2, "unit": "µM"}]}
